Three molecules from patent publication US20260224496A1, “HIGHLY POROUS GAS-BLOWN HYDROGELS FOR DIRECT CELL ENCAPSULATION WITH HIGH CELL VIABILITY” (Syracuse University, priority 2023, published 2026) can be followed below.

The subject of one data set is adipose-derived MSCs. As to the kind of experiment: in vitro. As for the experimental part: (§1) Using IC50 values as a concentration ceiling, the cytocompatibility of citric acid, NaHCO3, and Irgacure 2959 was measured with adipose-derived MSCs at concentrations of 0.25, 1, and 0.2% (w/v) in DMEM, respectively. MSCs were seeded in 24 well plates at 2,500 cells per well. […] After incubation, cells were treated with a resazurin assay for 2 hours for cytocompatibility measurements or with Live/Dead assay stains and imaging for morphology analysis.

Another data set deals with 3T3 mouse fibroblasts. As to the kind of experiment: IC50 values of foaming components, resazurin assay (Alamar Blue). Format: cell-based. Conditions: 20-minute exposure. On the procedure:
Cells were cultured in DMEM with 10% fetal bovine serum (FBS) and 1% penicillin-streptomycin (pen-strep) at 37° C. with 5% CO2. Cells were trypsinized and seeded at a density of 5,000 cells per well in a 96-well plate. […] After a 20-minute exposure, solutions were removed, and cell viability was measured compared to an untreated control using a resazurin assay (Alamar Blue) read by a plate reader. Cell viability was calculated as: […]
The blank was a well with media only and no cells.
On the technique in general: The colour change of resazurin is a common sign of viable cells or microbes.

A short description of the next data set: in vitro. On the procedure:
as §1

For `CC(C)(O)C(=O)c1ccc(OCCO)cc1` [Irgacure 2959], in the data set with adipose-derived MSCs, the “MSC viability after 24-hour recovery” value is 99% and the “MSC viability after 1 hour of exposure” value is 99%.

Molecule `O=C(O)CC(O)(CC(=O)O)C(=O)O` [Citric acid, citric acid] came in with an IC50 with 3T3 mouse fibroblasts of 0.23 wt %. In “in vitro”, this molecule came in with a viability at 1 h, 0.25 % (w/v) of 51% and a viability at 24 h, 0.25 % (w/v) of 21%.

On to `O=C([O-])O.[Na+]` [NaHCO3, sodium bicarbonate], for which the “MSC viability after 24-hour recovery” value in the data set with adipose-derived MSCs (citric acid 0.25%, Irgacure 2959 0.2%, NaHCO3 1% (w/v) in DMEM, 24-hour recovery) is reported as 95%. For the same molecule, the “MSC viability after 1 hour of exposure” value in the data set with adipose-derived MSCs (citric acid 0.25%, Irgacure 2959 0.2%, NaHCO3 1% (w/v) in DMEM, 1 hour exposure) amounted to 98%.

As usually defined, the viability is a read-out of living cells in per cent, often relative to untreated cells.
